Data from patent publication US20200323905A1, “METHODS AND COMPOSITIONS FOR MODULATING THE IMMUNE SYSTEM” (Trustees of Boston University, priority 2019, published 2020).
“Also recorded” adds a separate entry of the source.

Columns and labels:
Format in all cases: cell-based, mouse
WT CD4+ and CD8+ T cells = assay: T-cell proliferation assay (CellTrace Violet or CFSE); conditions: DMSO- versus verteporfin-treated, 3 days post stimulation with IL-2, anti-CD3 and anti-CD28 (FIG. 6K)
Experimental: (§1) Cells were cultured and stimulated in 96-well plates at 1×10^5 cells per well. Plates were coated with anti-CD3 antibody (Biolegend) at concentrations of 0, 0.125, 0.25, 0.5, and 1 μg/ml at 4° C. overnight and were washed twice with PBS before incubation. Cells were stimulated in the anti-CD3-coated plates with soluble anti-CD28 at 2 μg/ml (Biolegend). On days 1 and 3, cells were stained with dead cell dye as well as antibodies recognizing the lineage and activation markers CD3 BUV737 (BD), CD4 BUV395 (BD), CD8 PerCP-Cy5.5 (Biolegend), CD69 PE (Biolegend), CD44 BV650 (Biolegend), and CD25 APC (Biolegend). For proliferation assays, CD4^+ or CD8^+ T cells were isolated and stained using the CellTrace Violet or CFSE Cell Proliferation Kit (Life Technologies). Briefly, purified cells were washed with PBS and incubated with CellTrace dye for 20 minutes at 37° C. protected from light. After 20 minutes, complete RMPI medium was added to the cell suspension, and the cells were incubated 5 minutes further before being washed and resuspended in complete RPMI medium. Cells were cultured in 96-well plates at 1×10^5 cells per well and were stimulated using anti-CD3/CD28 dynabeads (Gibco) at a 1:1 ratio with T cells. On days 1 and 3, cells were stained with dead cell dye, and proliferation was measured at the same time.

WT CD8+ T cells = assay: T-cell activation marker expression by flow cytometry after IL-2 and CD3/CD28 stimulation
Experimental: (§2) Spleens from WT or Yap-cKO mice were pushed through a 70 μm mesh (Falcon) using an insulin syringe plunger and washed with PBS. Cells were treated with ACK red blood cell lysis buffer, and splenocyte single-cell suspensions were prepared for magnetic separation or stained for sorting by flow cytometry. CD4^+ or CD8^+ T-cell enrichment was performed using magnetic beads (Miltenyi Biotec or STEMCELL Technologies). Naïve CD4^+ T cells were isolated using a naïve CD4^+ T-cell isolation kit (Miltenyi Biotec).
(§3) Isolated splenocytes or tumor digests were washed with PBS and stained with the LIVE/DEAD fixable near-IR dead cell stain kit (Invitrogen). Cells were then washed with stain buffer (BD), resuspended in stain buffer containing Fc block (BD), and incubated for 5 minutes at 4° C. Surface antibodies were added in predetermined concentrations, and cells were incubated for 30 minutes at 4° C. or 15 minutes at room temperature, before being washed with BD stain buffer and resuspended in PBS for flow cytometric analysis. For intracellular cytokine staining, cells were fixed and permeabilized using the BD Cytofix/Cytoperm Fixation/Permeabilization kit (BD) after dead cell dye and surface staining. For transcription factor staining, the eBioscience Foxp3/transcription factor staining buffer set was used. Flow cytometry analyses were performed on BD LSRII at Boston University School of Medicine Flow Cytometry Facility or at the University of Maryland School of Medicine Center for Innovative Biomedical Resources, Flow Cytometry Shared Service and analyzed by Flowlo (TreeStar).
as §1, with “Cells were cultured in 96-well plates at 1×10^5 cells per well and were stimulated using anti-CD3/CD28 dynabeads (Gibco) at a 1:1 ratio with T cells.” left out

WT CD4+ T cells = assay: as above
Experimental: as §2, §3
as §1, with “Cells were cultured in 96-well plates at 1×10^5 cells per well and were stimulated using anti-CD3/CD28 dynabeads (Gibco) at a 1:1 ratio with T cells.” left out

Substance: Verteporfin
- Proliferation of T cells isolated from WT mice (WT CD4+ and CD8+ T cells): did not significantly affect proliferation; also recorded: neither Yap deletion nor verteporfin treatment significantly impacted T-cell proliferation
- CD69 expression on WT CD8+ T cells (WT CD8+ T cells; 72 hours (3 days) post IL-2 and CD3/CD28 stimulation, increasing concentration of verteporfin (FIG. 6J, FIG. 11F)): increased levels of early activation markers
- CD71 expression on WT CD8+ T cells (WT CD8+ T cells; 72 hours post IL-2 and CD3/CD28 stimulation, increasing concentration of verteporfin (FIG. 1J)): increased levels of early activation markers CD71
- CD69 expression on WT CD4+ T cells (WT CD4+ T cells; 72 hours (3 days) post IL-2 and CD3/CD28 stimulation, increasing concentration of verteporfin (FIG. 6I, FIG. 11E)): increased levels of early activation markers
- CD71 expression on WT CD4+ T cells (WT CD4+ T cells; 72 hours post IL-2 and CD3/CD28 stimulation, increasing concentration of verteporfin (FIG. 1I)): increased levels of early activation markers CD71
